Test results published in patent publication US11613515B2, “Neuro-attenuating ketamine and norketamine compounds, derivatives thereof, and methods” (Amorsa Therapeutics, Inc., priority 2014, dated 2023).
Counter-ions that a name gives are not always drawn.

What was measured:
NMDA receptor = assay: Patch clamp electrophysiological functional response, NMDA receptor inhibition; format: cell-based; details: cultural hippocampal rat neurons
[1] = estimated, background; cited from earlier work
[2] = fraction of ketamine activity; cited from earlier work
[3] = Metabolic stability in rat liver microsomes; details: NADPH regenerating system, 0 to 60 min
[4] = Pharmacokinetics of deuterated norketamines in rats (tail vein injection); details: 0.8 mg/kg, injection into the tail vein
Protocol: Pharmacokinetics of the deuterated norketamines is studied in rats. […] The terminal half-lives are calculated by fitting the data points using a WinNonLin software package.

[5] = cited from earlier work

For `CNC1(c2ccccc2Cl)CCCCC1=O` (racemic) [ketamine, (R,S)-2-(2-chlorophenyl)-2-(methylamino) cyclohexanone], which IC50 (NMDA receptor) is on record?
The IC50 was 2.2 µM.

What about the elimination half-life [1] of the same compound?
The elimination half-life was 2 to 3 h.

With `NC1(c2ccccc2Cl)CCCCC1=O` (racemic) [norketamine, (R,S)-2-(2-chlorophenyl)-2-(amino) cyclohexanone] as the compound, how does the “activity as compared with ketamine” value [2] read?
The value was “roughly one third”.

What about the IC50 (NMDA receptor) of the same compound?
Its IC50 is 14.7 µM.

What does the source list for `[2H]C1([2H])CCCC(N)(c2ccccc2Cl)C1=O` (centres unmarked) [compound 11]?
increase in half-life compared to non-deuterated norketamine [3]: about 80%; IC50 (NMDA receptor): 25.9 µM; increase of terminal half-life vs norketamine [4]: ~40%

With `CNC1(c2ccccc2Cl)CCCCC1=O` (centres unmarked) [ketamine hydrochloride] as the compound, how does the solubility in water [5] read?
Its solubility in water is “about 200 mg/ml”.
